Test results taken from patent publication US20070275962A1, “Heterobicyclic Compounds as Pharmaceutically Active Agents” (GPC BIOTECH AG, priority 2003, published 2007).

Columns and labels:
Format in all cases: biochemical
CDK1/CycB act.GST-HIS = CDK1/CycB act.GST-HIS (Homo sapiens, UniProt P06493); assay: General kinase assay: CDK1/CycB; details: concentration 10 μM; read-out: Inhibitory effect on Target CDK1/CycB act.GST-HIS
Method: (§1) General Assay Protocol for all Kinases [[[…]]] [[[…]]] Reaction Buffer: Final Assay Concentrations: [[[…]]] Pipetting Sequence: • 1) Add 8 μl 50 μM MBP in Reaction Buffer to each well of Assay Plate • 2) Add 10 μl 500 mM EDTA in H2O to C- wells • 3) Add 8 μl 62.5 μCi/ml Adenosine 5'-[γ-^33P]triphosphate+5 μM ATP in Reaction Buffer to each well • 4) Add 8 μl 5 fold concentrated inhibitor in 5% DMSO in Reaction Buffer to each well except to C- and C+ wells • 5) Add 8 μl 5% DMSO in Reaction Buffer to C- and C+ wells • 6) Add 8 μl 5 fold concentrated kinase in Reaction Buffer to each well • 7) Incubate 1 hr at room temperature • 8) Add 10 μl 50 mM EDTA in H2O to each well except to C- wells • 9) Prepare MAPH plates by adding 200 μl 0.75% H3PO4 to each well • 10) Exhaust 0.75% H3PO4 using Millipore vacuum station • 11) Add 60 μl 0.75% H3PO4 to each well of MAPH Filter Plate • 12) Transfer 30 μl sample per well from Assay Plate to corresponding well of MAPH Filter Plate • 13) Incubate 30 min at room temperature • 14) Wash each well of MAPH Filter Plates 3× with 200 μl 0.75% H3PO4 using Millipore vacuum station • 15) Add 20 μl Szintilation Liquid to each well of MAPH Filter Plate • 16) Seal MAPH Filter Plate • 17) Store MAPH Filter Plate 30 min in darkness • 18) Quantify radioactivity

Kit human GST = molecular target: T1, Kit human GST (Homo sapiens, UniProt P10721); assay: General kinase assay: Kit; details: concentration 10 μM; read-out: Inhibitory effect on Target Kit human GST
T1 construct: GST
T1 sequence (P10721 26-976): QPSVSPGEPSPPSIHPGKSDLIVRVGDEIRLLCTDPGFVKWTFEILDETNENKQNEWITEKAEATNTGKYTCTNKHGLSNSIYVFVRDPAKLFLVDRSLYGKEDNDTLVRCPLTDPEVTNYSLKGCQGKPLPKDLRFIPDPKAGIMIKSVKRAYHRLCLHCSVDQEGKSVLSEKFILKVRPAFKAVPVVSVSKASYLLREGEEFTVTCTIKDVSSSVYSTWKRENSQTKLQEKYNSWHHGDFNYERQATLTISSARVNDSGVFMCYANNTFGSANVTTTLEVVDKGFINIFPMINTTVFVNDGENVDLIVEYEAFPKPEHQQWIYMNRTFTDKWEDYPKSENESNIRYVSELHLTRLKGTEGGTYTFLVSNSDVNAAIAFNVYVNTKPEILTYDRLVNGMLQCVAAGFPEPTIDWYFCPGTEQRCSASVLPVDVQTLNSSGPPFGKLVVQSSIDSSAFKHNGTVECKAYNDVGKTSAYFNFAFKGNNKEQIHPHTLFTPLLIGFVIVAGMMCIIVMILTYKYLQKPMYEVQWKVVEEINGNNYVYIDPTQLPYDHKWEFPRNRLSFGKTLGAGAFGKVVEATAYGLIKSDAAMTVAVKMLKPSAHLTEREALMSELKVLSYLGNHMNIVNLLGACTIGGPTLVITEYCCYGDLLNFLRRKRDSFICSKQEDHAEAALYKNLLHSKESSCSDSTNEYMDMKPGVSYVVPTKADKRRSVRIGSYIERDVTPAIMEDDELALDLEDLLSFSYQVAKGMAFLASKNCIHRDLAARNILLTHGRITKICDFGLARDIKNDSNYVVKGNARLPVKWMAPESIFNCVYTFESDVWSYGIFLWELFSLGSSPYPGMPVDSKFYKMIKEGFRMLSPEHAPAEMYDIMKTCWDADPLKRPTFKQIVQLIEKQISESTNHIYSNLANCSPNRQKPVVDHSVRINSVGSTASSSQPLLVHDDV
Method: as §1

PDGFRbeta GST = molecular target: T2, PDGFRbeta GST (Homo sapiens, UniProt P09619); assay: General kinase assay: PDGFRbeta; details: concentration 10 μM; read-out: Inhibitory effect on Target PDGFRbeta GST
T2 construct: GST
T2 sequence (P09619 33-1106): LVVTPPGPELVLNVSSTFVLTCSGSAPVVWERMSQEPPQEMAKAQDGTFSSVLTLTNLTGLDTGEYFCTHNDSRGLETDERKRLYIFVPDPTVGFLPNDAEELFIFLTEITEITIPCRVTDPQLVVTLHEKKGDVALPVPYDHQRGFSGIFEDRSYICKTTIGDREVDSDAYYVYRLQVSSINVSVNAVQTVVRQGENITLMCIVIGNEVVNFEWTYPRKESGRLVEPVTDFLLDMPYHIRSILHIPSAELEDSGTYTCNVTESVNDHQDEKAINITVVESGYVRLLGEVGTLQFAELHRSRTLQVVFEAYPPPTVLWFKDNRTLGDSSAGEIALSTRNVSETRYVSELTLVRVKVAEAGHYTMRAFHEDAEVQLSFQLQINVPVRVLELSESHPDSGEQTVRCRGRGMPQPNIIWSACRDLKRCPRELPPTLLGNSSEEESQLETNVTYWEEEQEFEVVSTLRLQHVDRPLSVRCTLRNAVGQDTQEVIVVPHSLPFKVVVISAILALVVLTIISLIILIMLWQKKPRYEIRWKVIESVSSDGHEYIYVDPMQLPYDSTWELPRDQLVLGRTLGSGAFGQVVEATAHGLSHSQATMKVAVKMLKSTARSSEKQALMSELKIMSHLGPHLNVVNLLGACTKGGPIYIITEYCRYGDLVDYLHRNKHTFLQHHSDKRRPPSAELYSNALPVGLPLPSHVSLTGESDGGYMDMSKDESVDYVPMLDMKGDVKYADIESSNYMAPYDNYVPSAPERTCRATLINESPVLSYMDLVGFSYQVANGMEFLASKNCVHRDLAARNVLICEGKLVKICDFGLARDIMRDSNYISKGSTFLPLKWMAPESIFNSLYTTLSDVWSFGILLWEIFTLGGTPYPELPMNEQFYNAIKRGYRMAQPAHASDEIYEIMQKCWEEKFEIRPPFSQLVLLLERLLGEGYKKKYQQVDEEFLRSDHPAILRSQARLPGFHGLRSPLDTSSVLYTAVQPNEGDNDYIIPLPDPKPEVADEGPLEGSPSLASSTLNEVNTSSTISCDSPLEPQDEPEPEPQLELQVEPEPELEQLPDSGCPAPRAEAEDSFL
Method: as §1

SRPK1 GST = molecular target: T3, SRPK1 GST (Homo sapiens, UniProt Q96SB4); assay: General kinase assay: SRPK1; details: concentration 10 μM; read-out: Inhibitory effect on Target SRPK1 GST
T3 construct: GST
T3 sequence (Q96SB4 whole entry): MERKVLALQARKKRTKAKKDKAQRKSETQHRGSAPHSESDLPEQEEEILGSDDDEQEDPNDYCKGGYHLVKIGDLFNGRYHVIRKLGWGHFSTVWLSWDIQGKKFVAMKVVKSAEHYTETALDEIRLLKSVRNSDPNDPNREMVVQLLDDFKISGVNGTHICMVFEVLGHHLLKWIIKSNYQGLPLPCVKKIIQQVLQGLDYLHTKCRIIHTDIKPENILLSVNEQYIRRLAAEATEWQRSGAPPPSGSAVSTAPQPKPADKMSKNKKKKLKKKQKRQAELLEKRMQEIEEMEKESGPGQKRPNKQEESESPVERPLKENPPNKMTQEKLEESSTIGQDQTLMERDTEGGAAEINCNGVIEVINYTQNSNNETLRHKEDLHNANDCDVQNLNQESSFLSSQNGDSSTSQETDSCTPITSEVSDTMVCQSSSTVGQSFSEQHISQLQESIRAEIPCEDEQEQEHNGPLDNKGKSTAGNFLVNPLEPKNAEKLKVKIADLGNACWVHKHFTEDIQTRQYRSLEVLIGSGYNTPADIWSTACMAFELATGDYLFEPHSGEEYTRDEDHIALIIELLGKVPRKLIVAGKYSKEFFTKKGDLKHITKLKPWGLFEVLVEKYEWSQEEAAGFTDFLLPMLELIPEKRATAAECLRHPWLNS
Method: as §1

Measured: inhibition at 10 µM

CDK1/CycB act.GST-HIS, sequence (P06493 whole entry, species assumed): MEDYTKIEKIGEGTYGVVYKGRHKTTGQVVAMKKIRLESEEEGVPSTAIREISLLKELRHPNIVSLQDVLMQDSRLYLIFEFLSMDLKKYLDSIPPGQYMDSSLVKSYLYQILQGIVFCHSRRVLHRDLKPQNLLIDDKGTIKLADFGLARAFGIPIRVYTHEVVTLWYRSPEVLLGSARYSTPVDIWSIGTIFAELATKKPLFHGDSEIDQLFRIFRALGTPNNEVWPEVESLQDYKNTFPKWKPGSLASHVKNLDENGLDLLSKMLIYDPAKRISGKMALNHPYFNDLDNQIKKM
CDK1/CycB act.GST-HIS, sequence (P14635 whole entry partner, species assumed): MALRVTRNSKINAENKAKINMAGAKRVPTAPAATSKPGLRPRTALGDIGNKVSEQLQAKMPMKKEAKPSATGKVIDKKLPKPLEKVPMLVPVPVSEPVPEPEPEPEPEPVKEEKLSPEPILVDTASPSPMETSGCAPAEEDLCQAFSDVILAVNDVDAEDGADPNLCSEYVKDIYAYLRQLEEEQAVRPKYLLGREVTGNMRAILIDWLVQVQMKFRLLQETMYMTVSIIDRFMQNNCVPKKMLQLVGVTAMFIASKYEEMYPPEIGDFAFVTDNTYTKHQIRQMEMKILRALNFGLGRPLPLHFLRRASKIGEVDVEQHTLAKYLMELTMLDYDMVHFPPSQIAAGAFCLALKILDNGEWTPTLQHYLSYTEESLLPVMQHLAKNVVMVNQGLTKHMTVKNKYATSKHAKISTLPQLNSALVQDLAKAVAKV

NC(=O)c1c(NC(=O)Nc2ccc(F)cc2)sc2c1CCOC2 [Compound B13, 2-[3-(4-Fluoro-phenyl)-ureido]-4,7-dihydro-5H-thieno[2,3-c]pyran-3-carboxylic acid amide]
> 50%: all assays above
